Tests used:
[1] = tested on: Phakopsora pachyrhizi containing the amino acid substitution F129L in the mitochondrial cytochrome b protein; test: Use Example 2: protective control of soybean rust on soybeans (PHAKPA P6); type: in vivo; settings: inoculated six days after spraying, % diseased leaf area
In short: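 Compound in acetone and/or DMSO with Wettol (99:1), diluted with water, was sprayed to run-off on potted soybean seedlings. After six days at 23–27°C and 60–80% RH, plants were inoculated with a Qo-resistant F129L strain and held 24 h at about 95% RH. Percent diseased leaf area was scored visually after up to 14 days.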

Puccinia recondita [2] = test: Use Example 3: curative control of brown rust on wheat (PUCCRT K4); type: in vivo; settings: % diseased leaf area
In short: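 Wheat seedlings inoculated with Puccinia recondita spores, held 24 h at 95–99% RH, 20–24° C in dark, then 3 days in greenhouse before spraying to run-off (curative). Compound in acetone/DMSO–Wettol–water. After 5–7 further days at 20–24° C, 65–70% RH, % diseased leaf area scored visually.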

[3] = tested on: Cercospora sojina (CERCSO); test: Use example 7: microtest, growth of Cercospora sojina (CERCSO); type: cell-based; settings: relative growth vs compound-free control (100%); for Growth (%) CERCSO Use Ex. 7: 7 days; for Growth at 8 ppm (%) CERCSO Use ex. 7: 7 days after inoculation
Description: (§1) The active compounds were formulated separately as a stock solution having a concentration of 10000 ppm in dimethyl sulfoxide. The stock solutions were mixed according to the ratio, pipetted onto a micro titer plate (MTP) and diluted with water to the stated concentrations. A spore suspension of one of the following fungal plant pathogens in aqueous bio malt solution • was then added for the respective use example: • Use example 5: Alternaria solani (ALTESO) • Use example 6: Botrytis cinerea (BOTRCI) • Use example 7: Cercospora sojina (CERCSO) • Use example 8: Colletotrichum orbiculare (COLLLA) • Use example 9: Leptosphaeria nodorum (LEPTNO) • Use example 10: Drechslera teres (PYRNTE) containing the amino acid substitution F129L in the mitochondrial cytochrome b protein conferring resistance to Qo inhibitors • Use example 11: Sclerotinia sclerotiorum (SCLESC), solute with ultrasonic from a filter membrane
(§2) The plates were placed in a water vapor-saturated chamber at a temperature of 18° C. Using an absorption photometer, the MTPs were measured at 405 nm 7 days after the inoculation.
(§3) The measured parameters were compared to the growth of the active compound-free control variant (100%) and the fungus-free blank value to determine the relative growth in % of the pathogens in the respective active compounds.

[4] = tested on: Phakopsora pachyrhizi containing the amino acid substitution F129L in the mitochondrial cytochrome b protein; test: Use Example 1: protective control of soybean rust on soybeans (PHAKPA P2); type: in vivo; settings: inoculated 2 days after spraying, % diseased leaf area
In short: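 Soybean seedling leaves sprayed to run-off with compound in acetone/DMSO–Wettol–water at the stated concentration, kept 2 days at 23-27° C, then inoculated with Qo-inhibitor-resistant F129L P. pachyrhizi. After 24 h at ~95% RH, 20-24° C, and up to 14 days in greenhouse, % diseased leaf area scored visually.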

Puccinia recondita [5] = test: Use Example 4: preventative control of brown rust on wheat (PUCCRT P7); type: in vivo; settings: inoculated seven days after spraying, % diseased leaf area
In short: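 First two leaves of potted wheat seedlings sprayed to run-off with compound in acetone/DMSO–emulsifier–water, then inoculated with Puccinia recondita spores seven days later. Plants held 24 h dark at 95–99% RH and 20–24 °C, then 9–11 days in greenhouse; diseased leaf area (%) scored visually.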

[6] = tested on: Botrytis cinerea (BOTRCI); test: Use example 6: microtest, growth of Botrytis cinerea (BOTRCI); type: cell-based; settings: relative growth vs compound-free control (100%); for Growth at 8 ppm (%) BOTRCI Use Ex. 6 / Growth at 125 ppm (%) BOTRCI Use Ex. 6: 7 days after inoculation
Description: as §1, §2, §3

[7] = tested on: Drechslera teres (PYRNTE) containing the amino acid substitution F129L in the mitochondrial cytochrome b protein; test: Use example 10: microtest, growth of Drechslera teres (PYRNTE) F129L; type: cell-based; settings: 125 ppm; relative growth vs compound-free control (100%), 7 days; Table 7
Description: as §1, §2, §3

[8] = tested on: Leptosphaeria nodorum (LEPTNO); test: Use example 9: microtest, growth of Leptosphaeria nodorum (LEPTNO); type: cell-based; settings: relative growth vs compound-free control (100%); for Growth at 125 ppm (%) LEPTNO Use Ex. 9: 7 days after inoculation
Description: as §1, §2, §3

[9] = tested on: Sclerotinia sclerotiorum (SCLESC); test: Use example 11: microtest, growth of Sclerotinia sclerotiorum (SCLESC); type: cell-based; settings: relative growth vs compound-free control (100%), 7 days after inoculation
Description: as §1, §2, §3

[10] = tested on: Colletotrichum orbiculare (COLLLA); test: Use example 8: microtest, growth of Colletotrichum orbiculare (COLLLA); type: cell-based; settings: relative growth vs compound-free control (100%)
Description: as §1, §2, §3

[11] = tested on: Alternaria solani (ALTESO); test: Use example 5: microtest, growth of Alternaria solani (ALTESO); type: cell-based; settings: 0.125 ppm; relative growth vs compound-free control (100%), 7 days after inoculation
Description: as §1, §2, §3

COC/C(=N\OCc1c(Cl)cccc1/C(=N\OC)C(=O)OC)c1ccc(Cl)cc1 [compound 34]
% PHAKPA (F129L) Disease level P6 at 4 ppm [1]: 80%
% PHAKPA (F129L) Disease level P6 at 16 ppm [1]: 25%
% PUCCRT Disease level K4 at 4 ppm (Puccinia recondita [2]): 75%
% PUCCRT Disease level K4 at 16 ppm (Puccinia recondita [2]): 70%
Growth (%) CERCSO Use Ex. 7 ([3]; 31 ppm): 56%
% PHAKPA (F129L) Disease level P2 at 4 ppm [4]: 68%
% PHAKPA (F129L) Disease level P2 at 16 ppm [4]: 22%
% PUCCRT Disease level P7 at 4 ppm (Puccinia recondita [5]): 48%
% PUCCRT Disease level P7 at 16 ppm (Puccinia recondita [5]): 9%
Growth (%) BOTRCI Use Ex. 6 ([6]; 0.5 ppm, 7 days): 35%
Growth (%) PYRNTE F129L Use Ex. 10 [7]: 4%

CNC(=O)/C(=N/OC)c1cccc(Cl)c1CO/N=C(\COC)c1cccc(C(F)(F)F)c1 [compound 56]
% PHAKPA (F129L) Disease level P6 at 4 ppm [1]: 23%
% PHAKPA (F129L) Disease level P6 at 16 ppm [1]: 0%
% PUCCRT Disease level K4 at 4 ppm (Puccinia recondita [2]): 8%
% PUCCRT Disease level K4 at 16 ppm (Puccinia recondita [2]): 0%
Growth at 8 ppm (%) CERCSO Use ex. 7 [3]: 13%
% PHAKPA (F129L) Disease level P2 at 4 ppm [4]: 15%
% PHAKPA (F129L) Disease level P2 at 16 ppm [4]: 0%
% PUCCRT Disease level P7 at 4 ppm (Puccinia recondita [5]): 2%
% PUCCRT Disease level P7 at 16 ppm (Puccinia recondita [5]): 2%
Growth at 8 ppm (%) BOTRCI Use Ex. 6 [6]: 64%

COC/C(=N\OCc1c(Br)cccc1/C(=N\OC)C(=O)OC)c1ccccc1 [compound 57]
% PHAKPA (F129L) Disease level P6 at 4 ppm [1]: 48%
% PHAKPA (F129L) Disease level P6 at 16 ppm [1]: 21%
% PHAKPA (F129L) Disease level P2 at 4 ppm [4]: 41%
% PHAKPA (F129L) Disease level P2 at 16 ppm [4]: 3%
% PUCCRT Disease level P7 at 4 ppm (Puccinia recondita [5]): 60%
% PUCCRT Disease level P7 at 16 ppm (Puccinia recondita [5]): 13%
Growth at 125 ppm (%) BOTRCI Use Ex. 6 [6]: 0%
Growth at 125 ppm (%) LEPTNO Use Ex. 9 [8]: 1%
Growth at 125 ppm (%) SCLESC Use Ex. 11 [9]: 2%

CO/C=C(/C(=O)OC)c1cccc(Br)c1CO/N=C(\COC)c1c(F)cc(F)cc1F [compound 58]
Growth (%) COLLLA Use Ex. 8 ([10]; 125 ppm, 7 days): 26%
% PHAKPA (F129L) Disease level P6 at 4 ppm [1]: 0%
% PHAKPA (F129L) Disease level P6 at 16 ppm [1]: 0%
% PUCCRT Disease level K4 at 4 ppm (Puccinia recondita [2]): 27%
% PUCCRT Disease level K4 at 16 ppm (Puccinia recondita [2]): 15%
Growth (%) CERCSO Use Ex. 7 ([3]; 125 ppm, Table 9): 63%
% PHAKPA (F129L) Disease level P2 at 4 ppm [4]: 2%
% PHAKPA (F129L) Disease level P2 at 16 ppm [4]: 0%
% PUCCRT Disease level P7 at 4 ppm (Puccinia recondita [5]): 57%
% PUCCRT Disease level P7 at 16 ppm (Puccinia recondita [5]): 30%
Growth (%) LEPTNO Use Ex. 9 ([8]; 125 ppm, 7 days, Table 9): 47%

CNC(=O)/C(=N/OC)c1cccc(C)c1CO/N=C(\COC)c1cccc(C(F)(F)F)c1 [reference compound]
Growth at 8 ppm (%) CERCSO Use ex. 7 [3]: 28%
Growth at 8 ppm (%) BOTRCI Use Ex. 6 [6]: 78%

CNC(=O)/C(=N/OC)c1cccc(C)c1CO/N=C(\COC)c1ccccc1 [reference compound]
Growth at 2 ppm (%) COLLLA Use ex. 8 ([10]; 2 ppm, 7 days after inoculation): 44%

CO/N=C(/C(=O)OC)c1cccc(Br)c1CO/N=C(\C)c1ccccc1 [reference compound]
Growth at 125 ppm (%) BOTRCI Use Ex. 6 [6]: 69%
Growth at 125 ppm (%) LEPTNO Use Ex. 9 [8]: 19%
Growth at 125 ppm (%) SCLESC Use Ex. 11 [9]: 39%

COC/C(=N\OCc1c(C)cccc1/C(=N\OC)C(=O)OC)c1ccc(F)cc1 [reference compound]
Growth (%) ALTESO Use ex. 5 [11]: 97%
Growth (%) SCLESC Use ex. 11 ([9]; 8 ppm): 89%
